From the kinase profiling compilation of Christmann-Franck et al. (2016)
Each block holds one compound with its values, some of them ahead of it.

Columns and labels:
Assay in all cases: KINOMEscan competition binding
[1] = target: ABL1 (human), P00519 [E255K]
[2] = target: ABL1 (human), P00519 [H396P]
[3] = target: ABL1 (human), P00519 [M351T]
[4] = target: ABL1 (human), P00519 [Y253F]
ABL2 (human) = ABL2 (human) (UniProt P42684)
CAMK2A (human) = CAMK2A (human) (UniProt Q9UQM7)
CAMK2D (human) = CAMK2D (human) (UniProt Q13557)
CAMK2G (human) = CAMK2G (human) (UniProt Q13555)
CAMKK1 (human) = CAMKK1 (human) (UniProt Q8N5S9)
CLK1 (human) = CLK1 (human) (UniProt P49759)
CSNK1G1 (human) = CSNK1G1 (human) (UniProt Q9HCP0)
EPHA2 (human) = EPHA2 (human) (UniProt P29317)
EPHA5 (human) = EPHA5 (human) (UniProt P54756)
EPHA6 (human) = EPHA6 (human) (UniProt Q9UF33)
EPHA8 (human) = EPHA8 (human) (UniProt P29322)
EPHB1 (human) = EPHB1 (human) (UniProt P54762)
EPHB4 (human) = EPHB4 (human) (UniProt P54760)
ERBB2 (human) = ERBB2 (human) (UniProt P04626)
FER (human) = FER (human) (UniProt P16591)
FGFR1 (human) = FGFR1 (human) (UniProt P11362)
FGFR2 (human) = FGFR2 (human) (UniProt P21802)
FGR (human) = FGR (human) (UniProt P09769)
Chain of FGR (human) (P09769 whole entry, looked up): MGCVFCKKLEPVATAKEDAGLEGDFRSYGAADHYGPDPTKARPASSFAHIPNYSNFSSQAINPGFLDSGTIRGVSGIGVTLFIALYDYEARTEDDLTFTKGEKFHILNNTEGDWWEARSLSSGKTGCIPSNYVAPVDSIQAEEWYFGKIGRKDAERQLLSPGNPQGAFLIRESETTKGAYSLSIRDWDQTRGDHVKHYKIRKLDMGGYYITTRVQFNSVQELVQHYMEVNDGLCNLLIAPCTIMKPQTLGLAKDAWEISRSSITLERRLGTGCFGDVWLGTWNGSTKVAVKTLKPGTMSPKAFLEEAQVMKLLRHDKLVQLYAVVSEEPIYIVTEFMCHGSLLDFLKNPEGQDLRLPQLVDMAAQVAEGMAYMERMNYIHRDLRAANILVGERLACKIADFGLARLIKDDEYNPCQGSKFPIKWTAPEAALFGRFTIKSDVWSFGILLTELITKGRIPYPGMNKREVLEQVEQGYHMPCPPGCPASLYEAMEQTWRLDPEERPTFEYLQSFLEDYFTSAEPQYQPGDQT

FLT3 (human) = FLT3 (human) (UniProt P36888)
FYN (human) = FYN (human) (UniProt P06241)
Chain of FYN (human) (P06241 whole entry, looked up): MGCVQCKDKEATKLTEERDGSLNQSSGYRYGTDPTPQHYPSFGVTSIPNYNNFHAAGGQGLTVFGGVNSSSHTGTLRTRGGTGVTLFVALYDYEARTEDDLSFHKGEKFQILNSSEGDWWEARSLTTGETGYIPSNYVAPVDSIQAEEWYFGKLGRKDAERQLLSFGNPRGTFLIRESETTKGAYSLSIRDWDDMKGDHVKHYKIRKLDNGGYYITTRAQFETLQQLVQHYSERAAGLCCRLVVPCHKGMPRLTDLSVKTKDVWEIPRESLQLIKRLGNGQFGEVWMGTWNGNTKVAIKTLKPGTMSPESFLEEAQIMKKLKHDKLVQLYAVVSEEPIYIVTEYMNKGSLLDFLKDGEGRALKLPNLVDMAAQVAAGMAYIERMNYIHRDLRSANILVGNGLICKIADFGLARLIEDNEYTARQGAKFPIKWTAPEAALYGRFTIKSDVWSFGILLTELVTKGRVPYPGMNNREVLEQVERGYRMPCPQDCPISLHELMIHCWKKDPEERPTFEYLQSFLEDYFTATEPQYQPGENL

HCK (human) = HCK (human) (UniProt P08631)
INSR (human) = INSR (human) (UniProt P06213)
KIT (human) = KIT (human) (UniProt P10721)
Chain of KIT (human) (P10721 whole entry, looked up): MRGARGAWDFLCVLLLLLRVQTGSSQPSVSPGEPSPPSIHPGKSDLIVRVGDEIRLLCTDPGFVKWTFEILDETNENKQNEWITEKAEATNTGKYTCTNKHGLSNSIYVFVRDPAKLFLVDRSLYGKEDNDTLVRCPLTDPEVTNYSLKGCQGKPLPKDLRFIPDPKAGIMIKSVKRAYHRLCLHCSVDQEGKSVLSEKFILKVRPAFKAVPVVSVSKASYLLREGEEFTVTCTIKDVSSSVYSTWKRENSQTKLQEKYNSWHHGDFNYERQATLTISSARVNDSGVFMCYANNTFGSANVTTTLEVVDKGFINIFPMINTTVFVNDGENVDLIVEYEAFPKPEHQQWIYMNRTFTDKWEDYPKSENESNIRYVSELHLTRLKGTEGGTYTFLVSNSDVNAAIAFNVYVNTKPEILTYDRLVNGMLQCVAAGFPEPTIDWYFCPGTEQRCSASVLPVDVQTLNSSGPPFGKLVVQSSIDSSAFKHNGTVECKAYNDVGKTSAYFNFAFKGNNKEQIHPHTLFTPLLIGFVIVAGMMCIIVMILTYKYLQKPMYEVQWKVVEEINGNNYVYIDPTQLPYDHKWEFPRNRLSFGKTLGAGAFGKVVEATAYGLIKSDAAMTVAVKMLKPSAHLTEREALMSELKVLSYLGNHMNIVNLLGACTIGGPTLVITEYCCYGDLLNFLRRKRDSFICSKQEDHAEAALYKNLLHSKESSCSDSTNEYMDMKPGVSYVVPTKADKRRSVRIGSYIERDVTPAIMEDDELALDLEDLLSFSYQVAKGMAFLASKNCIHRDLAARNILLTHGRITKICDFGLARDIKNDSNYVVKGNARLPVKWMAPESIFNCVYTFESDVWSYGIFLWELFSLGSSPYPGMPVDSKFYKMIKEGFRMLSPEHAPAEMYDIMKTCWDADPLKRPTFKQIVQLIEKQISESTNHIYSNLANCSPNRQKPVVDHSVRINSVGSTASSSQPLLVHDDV

LIMK1 (human) = LIMK1 (human) (UniProt P53667)
MAP3K4 (human) = MAP3K4 (human) (UniProt Q9Y6R4)
Chain of MAP3K4 (human) (Q9Y6R4 whole entry, looked up): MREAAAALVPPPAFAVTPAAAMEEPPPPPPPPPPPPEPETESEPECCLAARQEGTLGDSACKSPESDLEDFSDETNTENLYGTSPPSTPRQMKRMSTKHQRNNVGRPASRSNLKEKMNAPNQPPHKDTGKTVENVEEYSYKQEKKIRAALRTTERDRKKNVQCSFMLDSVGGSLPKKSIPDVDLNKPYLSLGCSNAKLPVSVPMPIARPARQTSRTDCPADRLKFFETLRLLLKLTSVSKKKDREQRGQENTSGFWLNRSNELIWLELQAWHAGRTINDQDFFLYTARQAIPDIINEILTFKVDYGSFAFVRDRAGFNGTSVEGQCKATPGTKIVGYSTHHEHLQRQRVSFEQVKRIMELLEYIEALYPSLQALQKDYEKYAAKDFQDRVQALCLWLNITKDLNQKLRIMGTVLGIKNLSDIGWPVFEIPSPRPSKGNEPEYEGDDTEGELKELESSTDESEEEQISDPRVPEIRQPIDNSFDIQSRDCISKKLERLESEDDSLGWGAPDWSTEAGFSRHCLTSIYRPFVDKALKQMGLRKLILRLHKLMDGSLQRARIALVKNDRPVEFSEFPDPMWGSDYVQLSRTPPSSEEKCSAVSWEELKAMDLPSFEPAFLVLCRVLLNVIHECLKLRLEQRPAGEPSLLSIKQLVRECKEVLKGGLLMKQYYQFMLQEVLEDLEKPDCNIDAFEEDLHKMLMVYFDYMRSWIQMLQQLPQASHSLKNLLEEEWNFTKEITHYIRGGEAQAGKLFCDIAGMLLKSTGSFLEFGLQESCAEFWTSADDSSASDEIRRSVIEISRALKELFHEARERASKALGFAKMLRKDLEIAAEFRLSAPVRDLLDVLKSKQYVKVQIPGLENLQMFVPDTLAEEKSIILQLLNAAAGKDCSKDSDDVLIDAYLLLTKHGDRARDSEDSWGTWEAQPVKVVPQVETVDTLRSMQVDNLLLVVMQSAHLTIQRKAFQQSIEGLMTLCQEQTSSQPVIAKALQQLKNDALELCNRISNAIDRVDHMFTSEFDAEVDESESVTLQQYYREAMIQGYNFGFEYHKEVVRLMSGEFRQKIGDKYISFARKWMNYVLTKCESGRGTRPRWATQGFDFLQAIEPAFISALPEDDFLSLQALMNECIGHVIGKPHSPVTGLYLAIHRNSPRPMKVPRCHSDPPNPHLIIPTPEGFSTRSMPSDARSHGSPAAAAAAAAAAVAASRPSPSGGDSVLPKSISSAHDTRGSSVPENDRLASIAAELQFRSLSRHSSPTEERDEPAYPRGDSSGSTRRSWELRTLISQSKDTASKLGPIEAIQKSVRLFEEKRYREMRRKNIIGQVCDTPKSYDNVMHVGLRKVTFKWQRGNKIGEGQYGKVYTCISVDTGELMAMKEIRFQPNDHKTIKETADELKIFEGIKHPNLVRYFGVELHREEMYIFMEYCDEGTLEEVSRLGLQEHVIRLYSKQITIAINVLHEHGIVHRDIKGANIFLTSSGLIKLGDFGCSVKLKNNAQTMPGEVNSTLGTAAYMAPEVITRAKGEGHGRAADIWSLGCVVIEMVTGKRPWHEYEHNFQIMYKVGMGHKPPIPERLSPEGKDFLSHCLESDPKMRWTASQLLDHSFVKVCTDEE

MAP3K5 (human) = MAP3K5 (human) (UniProt Q99683)
NTRK1 (human) = NTRK1 (human) (UniProt P04629)
PAK6 (human) = PAK6 (human) (UniProt Q9NQU5)
PAK7 (human) = PAK7 (human) (UniProt Q9P286)
PDGFRB (human) = PDGFRB (human) (UniProt P09619)
PHKG1 (human) = PHKG1 (human) (UniProt Q16816)
PIM1 (human) = PIM1 (human) (UniProt P11309)
PRKACA (human) = PRKACA (human) (UniProt P17612)
PTK2 (human) = PTK2 (human) (UniProt Q05397)
SRC (human) = SRC (human) (UniProt P12931)
STK10 (human) = STK10 (human) (UniProt O94804)
STK16 (human) = STK16 (human) (UniProt O75716)
TEK (human) = TEK (human) (UniProt Q02763)

Chain of ABL2 (human) (P42684 whole entry, looked up): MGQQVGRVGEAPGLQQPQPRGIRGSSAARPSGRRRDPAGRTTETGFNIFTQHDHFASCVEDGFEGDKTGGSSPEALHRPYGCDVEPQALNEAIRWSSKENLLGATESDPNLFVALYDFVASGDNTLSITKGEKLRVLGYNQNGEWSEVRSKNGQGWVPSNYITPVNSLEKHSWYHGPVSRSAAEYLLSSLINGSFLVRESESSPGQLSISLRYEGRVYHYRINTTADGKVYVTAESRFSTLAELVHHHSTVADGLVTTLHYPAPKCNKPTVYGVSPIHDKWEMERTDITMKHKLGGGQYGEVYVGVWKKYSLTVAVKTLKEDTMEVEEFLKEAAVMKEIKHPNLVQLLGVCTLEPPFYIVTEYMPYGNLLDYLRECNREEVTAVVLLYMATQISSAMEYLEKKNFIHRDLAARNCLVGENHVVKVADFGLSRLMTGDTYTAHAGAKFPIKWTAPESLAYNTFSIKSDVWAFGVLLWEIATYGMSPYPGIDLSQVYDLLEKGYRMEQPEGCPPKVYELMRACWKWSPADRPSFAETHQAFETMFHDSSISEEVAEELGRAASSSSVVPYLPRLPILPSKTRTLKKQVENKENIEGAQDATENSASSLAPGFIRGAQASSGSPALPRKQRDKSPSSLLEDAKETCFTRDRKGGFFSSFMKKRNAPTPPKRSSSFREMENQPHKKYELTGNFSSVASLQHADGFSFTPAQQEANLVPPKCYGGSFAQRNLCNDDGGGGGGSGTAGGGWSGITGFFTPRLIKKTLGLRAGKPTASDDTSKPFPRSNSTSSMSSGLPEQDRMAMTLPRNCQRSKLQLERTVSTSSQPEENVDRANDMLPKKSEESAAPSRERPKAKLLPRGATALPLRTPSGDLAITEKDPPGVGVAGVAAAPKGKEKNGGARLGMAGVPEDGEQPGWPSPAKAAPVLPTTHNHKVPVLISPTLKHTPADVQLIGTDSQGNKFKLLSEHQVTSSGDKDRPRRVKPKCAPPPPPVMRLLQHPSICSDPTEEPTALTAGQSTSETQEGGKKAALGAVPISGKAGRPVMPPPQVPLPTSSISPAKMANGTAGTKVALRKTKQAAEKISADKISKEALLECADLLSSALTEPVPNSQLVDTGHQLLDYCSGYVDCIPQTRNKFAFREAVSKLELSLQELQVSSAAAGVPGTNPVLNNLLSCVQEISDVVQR

SMILES: Oc1ccc(-c2nc(-c3ccc(F)cc3)c(-c3ccncc3)[nH]2)cc1
Kd [1]: > 10 µM
Kd [2]: > 10 µM
Kd [3]: > 10 µM
Kd [4]: > 10 µM
Kd (ABL2 (human)): > 10 µM
Kd (CAMK2A (human)): > 10 µM
Kd (CAMK2D (human)): > 10 µM
Kd (CAMK2G (human)): > 10 µM
Kd (CAMKK1 (human)): > 10 µM
Kd (CLK1 (human)): > 10 µM
Kd (CSNK1G1 (human)): > 10 µM
Kd (EPHA2 (human)): > 10 µM
Kd (EPHA5 (human)): > 10 µM
Kd (EPHA6 (human)): > 10 µM
Kd (EPHA8 (human)): > 10 µM
Kd (EPHB1 (human)): > 10 µM
Kd (EPHB4 (human)): > 10 µM
Kd (ERBB2 (human)): > 10 µM
Kd (FER (human)): > 10 µM
Kd (FGFR1 (human)): > 10 µM
Kd (FGFR2 (human)): > 10 µM
Kd (FGR (human)): > 10 µM
Kd (FLT3 (human)): > 10 µM
Kd (FYN (human)): > 10 µM
Kd (HCK (human)): > 10 µM
Kd (INSR (human)): > 10 µM
Kd (KIT (human)): > 10 µM
Kd (LIMK1 (human)): > 10 µM
Kd (MAP3K4 (human)): > 10 µM
Kd (MAP3K5 (human)): > 10 µM
Kd (NTRK1 (human)): > 10 µM
Kd (PAK6 (human)): > 10 µM
Kd (PAK7 (human)): > 10 µM
Kd (PDGFRB (human)): > 10 µM
Kd (PHKG1 (human)): > 10 µM
Kd (PIM1 (human)): > 10 µM
Kd (PRKACA (human)): > 10 µM
Kd (PTK2 (human)): > 10 µM
Kd (SRC (human)): > 10 µM
Kd (STK10 (human)): > 10 µM
Kd (STK16 (human)): > 10 µM
Kd (TEK (human)): > 10 µM

Kd [1]: > 10 µM
Kd [2]: > 10 µM
Kd [3]: > 10 µM
Kd [4]: > 10 µM
Kd (ABL2 (human)): > 10 µM
Kd (CAMK2A (human)): > 10 µM
Kd (CAMK2D (human)): > 10 µM
Kd (CAMK2G (human)): > 10 µM
Kd (CAMKK1 (human)): > 10 µM
Kd (CLK1 (human)): > 10 µM
Kd (CSNK1G1 (human)): 3.7 µM
Kd (EPHA2 (human)): > 10 µM
Kd (EPHA5 (human)): > 10 µM
Kd (EPHA6 (human)): > 10 µM
Kd (EPHA8 (human)): > 10 µM
Kd (EPHB1 (human)): > 10 µM
Kd (EPHB4 (human)): > 10 µM
Kd (ERBB2 (human)): > 10 µM
Kd (FER (human)): > 10 µM
Kd (FGFR1 (human)): > 10 µM
Kd (FGFR2 (human)): 1.9 µM
Kd (FGR (human)): > 10 µM
Kd (FLT3 (human)): > 10 µM
Kd (FYN (human)): > 10 µM
Kd (HCK (human)): > 10 µM
Kd (INSR (human)): > 10 µM
Kd (KIT (human)): > 10 µM
Kd (LIMK1 (human)): > 10 µM
Kd (MAP3K4 (human)): > 10 µM
Kd (MAP3K5 (human)): > 10 µM
Kd (NTRK1 (human)): > 10 µM
Kd (PAK6 (human)): > 10 µM
Kd (PAK7 (human)): > 10 µM
Kd (PDGFRB (human)): > 10 µM
Kd (PHKG1 (human)): > 10 µM
Kd (PIM1 (human)): > 10 µM
Kd (PRKACA (human)): > 10 µM
Kd (PTK2 (human)): > 10 µM
Kd (SRC (human)): > 10 µM
Kd (STK10 (human)): > 10 µM
Kd (STK16 (human)): 0.51 µM
Kd (TEK (human)): > 10 µM
SMILES: O=C1c2ccccc2-c2n[nH]c3cccc1c23
